US20200199247A1, “ANTIBODY CONJUGATES OF IMMUNE-MODULATORY COMPOUNDS AND USES THEREOF” (SILVERBACK THERAPEUTICS, INC., priority 2017, published 2020)
Peptide text beside a SMILES is read from it. * marks the point of attachment. Cbz = O=C(OCc1ccccc1)*

Experiments:
TGFβR1 [1] = target: T1, TGFβR1 (Homo sapiens, UniProt P36897); test: Cellular level of TGFβR1 in normal human lung fibroblasts with or without proteasome inhibitor (western blot); assay type: cell-based; design: endogenous in cells; host or cells: normal human lung fibroblasts
T1 sequence (P36897 34-503): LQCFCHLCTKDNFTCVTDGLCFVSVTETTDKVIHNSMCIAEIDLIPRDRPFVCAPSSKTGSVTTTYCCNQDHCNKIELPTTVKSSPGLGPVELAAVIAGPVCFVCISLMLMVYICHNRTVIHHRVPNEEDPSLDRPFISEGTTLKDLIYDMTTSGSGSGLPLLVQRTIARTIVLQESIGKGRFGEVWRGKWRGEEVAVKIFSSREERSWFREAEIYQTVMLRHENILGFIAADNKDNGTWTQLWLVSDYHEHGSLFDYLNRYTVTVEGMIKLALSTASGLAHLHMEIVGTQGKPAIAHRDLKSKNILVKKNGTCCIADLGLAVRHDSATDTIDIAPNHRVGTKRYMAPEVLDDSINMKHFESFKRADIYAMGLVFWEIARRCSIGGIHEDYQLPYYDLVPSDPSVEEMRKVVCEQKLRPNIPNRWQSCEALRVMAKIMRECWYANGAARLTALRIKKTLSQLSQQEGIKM
Description: Cells are plated, allowed to adhere, and treated with vehicle, an inhibitor, a PROTAC or a conjugate in the presence or absence of proteasome inhibitor, such as MG-132. After treatment, media is aspirated and cells are rinsed with ice cold PBS. Ice cold lysis buffer (20 mM TrisHCl pH 7.5, 150 mM NaCl, 1% Triton X-100, 2 mM EDTA and 10% glycerol) containing phosphatase and protease inhibitors is added to wells and cells are removed from the plate using a cell scraper. Lysates are transferred to a 1.5 ml tube and rocked for one hour at 4° C. with vortexing every ˜15 minutes. Tubes are spun at 8500×g for 10 minutes and supernatants are drawn into an insulin needle twice. Cell lysates are frozen at […]. Protein concentration is determined using a BCA assay and equal amounts of samples are boiled with reducing loading buffer. The samples are then subjected to electrophoresis on 4-20% polyacrylamide gels which are then transferred to PVDF membranes. […] Loading controls are detected with 1:15000 diluted primary antibody incubation at room temperature for 1 hour with rocking (Tubulin—Abcam, ab7291; Actin—Abcam, ab8224). […]
Normal human lung fibroblasts were treated with or without proteasome inhibitor MG-132 followed by the addition of DMSO or T-20. Whole cell lysates were prepared and then quantitated with a BCA assay. […] TGFβR1, TGFβR2, and actin were detected using commercially available reagents. […]

TGFβR1 [2] = target: T1, TGFβR1; test: TGFβR1 level in HER2-transfected HEK293 cells (western blot); assay type: cell-based; design: Plasmid expressing HER2 was transfected into HEK293 cells; endogenous in cells; host or cells: HEK293 cells transiently transfected with a HER2 plasmid; conditions: 2, 24 and 48 hours of treatment
Description: After treatment, media is aspirated and cells are rinsed with ice cold PBS. Ice cold lysis buffer (20 mM TrisHCl pH 7.5, 150 mM NaCl, 1% Triton X-100, 2 mM EDTA and 10% glycerol) containing phosphatase and protease inhibitors is added to wells and cells are removed from the plate using a cell scraper. Lysates are transferred to a 1.5 ml tube and rocked for one hour at 4° C. with vortexing every ˜15 minutes. Tubes are spun at 8500×g for 10 minutes and supernatants are drawn into an insulin needle twice. Cell lysates are frozen at ˜80° C. Protein concentration is determined using a BCA assay and equal amounts of samples are boiled with reducing loading buffer. […] Loading controls are detected with 1:15000 diluted primary antibody incubation at room temperature for 1 hour with rocking (Tubulin—Abcam, ab7291; Actin—Abcam, ab8224). […]
Plasmid expressing HER2 was transfected into HEK293 cells using commercially available materials and conditions. […] Whole cell lysates were prepared from cells after 2, 24, or 48 hours incubation and quantitated with a BCA assay. Equal amounts of lysates were run on protein gels, transferred to PVDF, and TGFβR2 was detected using commercially available reagents. To quantitate the amount of protein degradation, the signals on the Western blot were adjusted to actin loading control and data is presented as a percent of matched control.

| SMILES | degradation of TGFβR1 (TGFβR1 [1]; 5 μM T-20) | amount of TGFβR1 protein (TGFβR1 [2]) | effect of proteasome inhibitor on T-20 induced degradation of TGFβR1 (TGFβR1 [1]; MG132 10 and 50 μM followed by 5 μM T-20) |
| --- | --- | --- | --- |
| Nc1ncc(-c2ccc(CCNC(=O)[C@@H](N)CCCCNC(=O)COc3cccc4c3C(=O)N(C3CCC(=O)NC3=O)C4=O)cc2)nc1C(=O)Nc1cnccc1N1CCOCC1 (stereo partly drawn) [Compound T-20, 3-amino-6-(4-(2-((2S)-2-amino-6-(2-((2-(2,6-dioxopiperidin-3-yl)-1,3-dioxoisoindolin-4-yl)oxy)acetamido)hexanamido)ethyl)phenyl)-N-(4-morpholinopyridin-3-yl)pyrazine-2-carboxamide] | degradation induced by T-20 | remained fairly constant |  |
| CC(C)C[C@@H](C=O)NC(=O)[C@H](CC(C)C)NC(=O)[C@H](CC(C)C)NC(=O)OCc1ccccc1 [MG-132, reference compound] (Cbz-Leu-Leu-Leu-aldehyde) |  |  | protected |
